The source of these data is PubChem BioAssay (NCI).

Structures are written as SMILES.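 Grown in 96-well plates, cells were treated for 48 hours with each compound at five concentrations. Insufficient inhibition: endpoint recorded as highest concentration tested. GI50 = concentration required for 50% inhibition of growth. TGI marks complete inhibition of growth.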

Some test systems named below: OVCAR-3 ovarian; SK-MEL-2 melanoma; IGROV1 ovarian; HOP-92 NSCLC; SF-295 CNS; KM12 colon; HCT-116 colon; HS 578T breast; OVCAR-4 ovarian; HOP-62 NSCLC.
What all share (test): NCI anticancer screen, dose series, 48 h

Take `O=C1/C(=C\c2ccco2)Oc2ccccc21`: the TGI in the assay on OVCAR-3 ovarian, in the assay on SK-MEL-2 melanoma, with IGROV1 ovarian, in the assay on HOP-92 NSCLC, in the assay on SF-295 CNS and with KM12 colon was over 100 µM each time. For the same compound, the TGI with HCT-116 colon, in the assay with HS 578T breast, in the assay on OVCAR-4 ovarian and in the assay with HOP-62 NSCLC was over 100 µM in each case.
Take `O=C(CC1(O)C(=O)Nc2ccc(F)cc21)c1ccc(C(=O)NCC2CCC3(CC2)OOC2(CCCCC2)OO3)cc1` (stereo not given): the GI50 is 1.85 µM in the assay on OVCAR-3 ovarian; 5.95 µM in the assay on SK-MEL-2 melanoma; 1.64 µM in the assay with IGROV1 ovarian; 1.91 µM in the assay on HOP-92 NSCLC; 3.69 µM in the assay on SF-295 CNS; 4.09 µM in the assay on KM12 colon. In addition, the GI50 with HCT-116 colon was 8.66 µM; in the assay with HS 578T breast, 11.4 µM; with OVCAR-4 ovarian, 7.74 µM; in the assay with HOP-62 NSCLC it was 3.64 µM. In addition, the TGI was 4.18 µM in the assay with OVCAR-3 ovarian; 20.7 µM with SK-MEL-2 melanoma; 6.63 µM in the assay with IGROV1 ovarian; 3.82 µM in the assay with HOP-92 NSCLC; 16.2 µM with SF-295 CNS; 17.5 µM in the assay on KM12 colon. In addition, the TGI in the assay on HCT-116 colon came out at 32 µM; with HS 578T breast, 47.4 µM; in the assay with OVCAR-4 ovarian, 32.5 µM; in the assay on HOP-62 NSCLC it was 12.3 µM.
As to `CCCCCCCCCc1ccc(OCCOCCOCCOCCOCCOCCOCCOCCOCCO)cc1`, the GI50 with OVCAR-3 ovarian was 0.428 µM; in the assay on SK-MEL-2 melanoma, 0.876 µM; in the assay on IGROV1 ovarian, 0.999 µM; with HOP-92 NSCLC, 0.792 µM; in the assay on SF-295 CNS, 0.304 µM; in the assay on KM12 colon, 0.598 µM. Also, the GI50 with HCT-116 colon is 0.374 µM; in the assay with HS 578T breast, 1.17 µM; in the assay on OVCAR-4 ovarian, 0.131 µM; in the assay on HOP-62 NSCLC it was 0.412 µM. Besides, the TGI in the assay with OVCAR-3 ovarian turned out to be 2.29 µM; with SK-MEL-2 melanoma, 1.96 µM; in the assay on IGROV1 ovarian it was 4.32 µM; with HOP-92 NSCLC, 3.07 µM; in the assay on SF-295 CNS, 1.96 µM; in the assay on KM12 colon, 4.02 µM. The TGI in the assay on HCT-116 colon stood at 1.59 µM; with HS 578T breast it was 9.03 µM; with OVCAR-4 ovarian, 5.04 µM; in the assay on HOP-62 NSCLC, 1.05 µM.
With `CC(NC(=O)Cc1ccc(C(F)(F)P(=O)(OCc2ccc([N+](=O)[O-])o2)N(C)CCCCCl)cc1)c1ccc(OCC2CCCCC2)c(C(N)=O)c1` (stereo not given), the GI50 in the assay on OVCAR-3 ovarian is 2.31 µM; with SK-MEL-2 melanoma it was 6.48 µM; in the assay on IGROV1 ovarian, 9.93 µM; in the assay with HOP-92 NSCLC, 16.5 µM; in the assay with SF-295 CNS it was 4.52 µM; in the assay with KM12 colon, 3.32 µM. Moreover, the GI50 is 1.93 µM in the assay on HCT-116 colon, 8.21 µM with HS 578T breast, 3.33 µM with OVCAR-4 ovarian and 4.08 µM with HOP-62 NSCLC. Also, the TGI with OVCAR-3 ovarian is 9.82 µM; with SK-MEL-2 melanoma, over 48.5 µM; in the assay on IGROV1 ovarian, 25.5 µM; with HOP-92 NSCLC, 37.2 µM; in the assay on SF-295 CNS, 12.3 µM; in the assay with KM12 colon, 10.2 µM. Further, the TGI worked out at 4.11 µM in the assay on HCT-116 colon, 38.4 µM in the assay with HS 578T breast, 12 µM with OVCAR-4 ovarian and 12.1 µM with HOP-62 NSCLC.
As to `CN(Cc1ccc(F)cc1)c1ccc(CO)c(Cl)c1`, the GI50 in the assay with OVCAR-3 ovarian was 3.55 µM; in the assay on SK-MEL-2 melanoma it was 8.32 µM; in the assay on IGROV1 ovarian it was 0.476 µM; in the assay with HOP-92 NSCLC, 3.87 µM; with SF-295 CNS it was 3.38 µM; with KM12 colon it was 27.1 µM. The GI50 in the assay on HCT-116 colon was 0.412 µM; with HS 578T breast, 27.4 µM; in the assay with OVCAR-4 ovarian it was 2.22 µM; in the assay with HOP-62 NSCLC, 5.13 µM. Besides, the TGI in the assay on OVCAR-3 ovarian is 15 µM; with SK-MEL-2 melanoma, 33.8 µM; with IGROV1 ovarian it was 3.47 µM; with HOP-92 NSCLC, 24 µM; with SF-295 CNS it was over 62.3 µM; in the assay on KM12 colon, over 76.9 µM. The TGI was 11.9 µM in the assay with HCT-116 colon, 97.3 µM with HS 578T breast, 19.7 µM in the assay with OVCAR-4 ovarian and over 87.6 µM in the assay on HOP-62 NSCLC.
As for `COc1ccc(-c2c(C#N)c(N)nc(N3CCOCC3)c2C#N)cc1`, the GI50 in the assay with OVCAR-3 ovarian is 12.9 µM; in the assay with SK-MEL-2 melanoma it was 27.1 µM; with IGROV1 ovarian it was 3.08 µM; in the assay on HOP-92 NSCLC, 14.3 µM; in the assay with SF-295 CNS, 15 µM; with KM12 colon, 21.7 µM. The GI50 in the assay with HCT-116 colon was 17.7 µM; in the assay on HS 578T breast it was 17.5 µM; in the assay on OVCAR-4 ovarian it was 47 µM; in the assay with HOP-62 NSCLC, 14.8 µM. Moreover, the TGI in the assay on OVCAR-3 ovarian was 45.4 µM; with SK-MEL-2 melanoma, over 100 µM; in the assay with IGROV1 ovarian, 21 µM; in the assay with HOP-92 NSCLC, 87.7 µM; with SF-295 CNS, 50.1 µM; in the assay on KM12 colon it was 87.4 µM. Besides, the TGI is 65.2 µM with HCT-116 colon, 64.4 µM in the assay with HS 578T breast, over 100 µM in the assay with OVCAR-4 ovarian and 70.4 µM in the assay on HOP-62 NSCLC.
For `O=[N+]([O-])c1cc([As](Br)c2ccc(O)c([N+](=O)[O-])c2)ccc1O`, the TGI in the assay with OVCAR-3 ovarian turned out to be 3.53 µM; in the assay with SK-MEL-2 melanoma, 2.59 µM; in the assay on IGROV1 ovarian, 3.6 µM; in the assay on HOP-92 NSCLC, 2.96 µM; in the assay on SF-295 CNS, 3.61 µM; with KM12 colon, 4.06 µM. Further, the TGI is 5.54 µM with HCT-116 colon, 5.93 µM in the assay on HS 578T breast, 3.28 µM with OVCAR-4 ovarian and 4.87 µM with HOP-62 NSCLC.
On to `CCn1cc(/C=C2\Oc3cc(OCC#N)ccc3C2=O)c2cc(OC)ccc21`, for which the GI50 with OVCAR-3 ovarian is 0.127 µM; with SK-MEL-2 melanoma, 0.807 µM; with IGROV1 ovarian it was 0.509 µM; with HOP-92 NSCLC, 11.2 µM; in the assay on SF-295 CNS, 0.221 µM; with KM12 colon it was 0.546 µM. For the same compound, the GI50 was 0.143 µM in the assay on HCT-116 colon, 0.267 µM in the assay with HS 578T breast, 11.2 µM in the assay with OVCAR-4 ovarian and 0.622 µM in the assay with HOP-62 NSCLC. The TGI is 4.94 µM in the assay with OVCAR-3 ovarian; over 68.5 µM with SK-MEL-2 melanoma; over 100 µM in the assay with IGROV1 ovarian; 68.6 µM in the assay on HOP-92 NSCLC; 20.7 µM with SF-295 CNS; over 100 µM in the assay with KM12 colon. In addition, the TGI with HCT-116 colon was over 100 µM; in the assay with HS 578T breast it was over 28.8 µM; in the assay with OVCAR-4 ovarian, over 100 µM; with HOP-62 NSCLC, over 46.6 µM.
